Data taken from patent US4137225A, “Novel chromogenic enzyme substrates” (Ab Kabi, priority 1975, dated 1979).
In brackets after ≈: the same amount, converted by molar mass. Where a name gives a salt, the structure may show the parent alone. Where a SMILES comes first, the peptide text is derived from it. [ ]: non-standard residue; d: D form. The star is where a group is joined. pNA = O=[N+]([O-])c1ccc(N*)cc1; Pip = O=C(O)[C@@H]1CCCCN1; Bz = O=C(c1ccccc1)*

What was measured:
[1] = target: Plasmin (Homo sapiens, UniProt P00747); test: Relative reaction rate of enzymatic hydrolysis of chromogenic substrates, plasmin (p-nitroaniline release at 405 nm); type: biochemical; details: for Rel Reaction rates, Pl (Plasmin): relative to reference substrate XVIII
Sequence of Plasmin (P00747 97-810): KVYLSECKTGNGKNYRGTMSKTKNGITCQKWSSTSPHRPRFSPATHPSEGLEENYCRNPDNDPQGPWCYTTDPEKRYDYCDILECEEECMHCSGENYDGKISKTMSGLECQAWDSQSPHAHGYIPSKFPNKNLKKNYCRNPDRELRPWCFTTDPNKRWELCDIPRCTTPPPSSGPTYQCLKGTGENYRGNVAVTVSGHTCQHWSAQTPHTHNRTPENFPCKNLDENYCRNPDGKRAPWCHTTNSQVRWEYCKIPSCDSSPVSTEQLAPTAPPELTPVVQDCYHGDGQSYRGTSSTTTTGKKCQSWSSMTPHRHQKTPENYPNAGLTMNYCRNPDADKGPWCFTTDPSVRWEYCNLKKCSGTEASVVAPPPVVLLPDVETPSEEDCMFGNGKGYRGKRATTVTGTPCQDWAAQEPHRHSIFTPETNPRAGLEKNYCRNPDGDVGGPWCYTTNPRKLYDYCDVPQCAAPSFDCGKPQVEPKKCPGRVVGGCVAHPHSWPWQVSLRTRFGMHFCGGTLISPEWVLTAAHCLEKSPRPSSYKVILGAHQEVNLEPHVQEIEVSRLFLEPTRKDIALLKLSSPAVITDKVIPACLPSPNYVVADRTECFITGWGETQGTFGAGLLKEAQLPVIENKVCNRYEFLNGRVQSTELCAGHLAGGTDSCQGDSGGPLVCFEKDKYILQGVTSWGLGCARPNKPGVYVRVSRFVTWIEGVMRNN
Excerpt: (§1) The substrates prepared according to the examples above are used for determination of different enzymes according to the procedure outlined above.
(§2) The principle for the determination is based on the fact that the splitting product formed by enzymatic hydrolysis has a UV-spectrum which is essentially different from that of the substrate. Thus, e.g. all p-nitro anilide substrates according to the invention have absorption maxima around 310 nm with the molar extinction coefficient of about 12000. At 405 nm the absorption of these substrates has almost completely discontinued. p-Nitroaniline which has been split off from the substrate during the enzymatic hydrolysis has an absorption maximum at 380 nm and a molar extinction coefficient of 13200, which at 405 nm only has decreased to 9620. By spectrophotometric determination at 405 nm it is thus easy to follow the amount of p-nitroaniline formed which is proportional to the degree of the enzymatic hydrolysis which in its turn is determined by the active amount of enzyme.
(§3) In the table above the relative reaction rates for the different substrates are stated in relation to a reference substrate chosen for each enzyme. Symbols, reference substrates and their sensitivity for the respective enzymes are according to the following: […]

[2] = system: Kallikrein; test: Relative reaction rate of enzymatic hydrolysis of chromogenic substrates, kallikrein (p-nitroaniline release at 405 nm); type: biochemical; details: for Rel Reaction rates, Kal (Kallikrein): relative to reference substrate XVI
Excerpt: as §1, §2, §3

[3] = Solubility in buffer; type: physicochemical; details: aqueous buffer; Buffer = Tris, pH 8.2, I 0.15
Excerpt: | ^x Buffer = Tris, pH 8.2, I 0.15

[4] = system: Trypsin; test: Relative reaction rate of enzymatic hydrolysis of chromogenic substrates, trypsin (p-nitroaniline release at 405 nm); type: biochemical; details: for Rel Reaction rates, Try (Trypsin): relative to reference substrate XIII
Excerpt: as §1, §2, §3

[5] = target: Urokinase (Homo sapiens, UniProt P00749); test: Relative reaction rate of enzymatic hydrolysis of chromogenic substrates, urokinase (p-nitroaniline release at 405 nm); type: biochemical; details: for Rel Reaction rates, UK (Urokinase): relative to reference substrate XIV
Excerpt: as §1, §2, §3

[6] = system: Thrombin; test: Relative reaction rate of enzymatic hydrolysis of chromogenic substrates, thrombin (p-nitroaniline release at 405 nm); type: biochemical; details: for Rel Reaction rates, T (Thrombin): relative to reference substrate XIV
Excerpt: as §1, §2, §3

Row | SMILES | Rel Reaction rates, Pl (Plasmin) [1] | Rel Reaction rates, Kal (Kallikrein) [2] | solubility [3] [µg/mL] | Rel Reaction rates, Try (Trypsin) [4] | Rel Reaction rates, UK (Urokinase) [5] | Rel Reaction rates, T (Thrombin) [6] | also measured
1 | CC[C@H](C)[C@H](NC(=O)c1ccccc1)C(=O)N[C@@H](CC(C)C)C(=O)N[C@@H](CCCNC(=N)N)C(=O)Nc1ccc([N+](=O)[O-])cc1 [Bz-Ile-Leu-Arg-pNA] (Bz-Ile-Leu-Arg-pNA) | 55 | 100 | 200 (≈ 320 µM) |  |  |  | 
2 | CC[C@H](C)[C@H](NC(=O)c1ccccc1)C(=O)N[C@@H](CC(C)C)C(=O)N[C@@H](CCCCN)C(=O)Nc1ccc([N+](=O)[O-])cc1 [Bz-Ile-Leu-Lys-pNA] (Bz-Ile-Leu-Lys-pNA) | 130 |  | 1000 (≈ 1680 µM) |  |  |  | 
3 | CC(C)C[C@H](NC(=O)[C@@H](NC(=O)c1ccccc1)C(C)C)C(=O)N[C@@H](CCCNC(=N)N)C(=O)Nc1ccc([N+](=O)[O-])cc1 [Bz-Val-Leu-Arg-pNA] (Bz-Val-Leu-Arg-pNA) |  | 100 | 200 (≈ 327 µM) |  |  |  | 
4 | CC(C)C[C@H](NC(=O)[C@@H](NC(=O)c1ccccc1)C(C)C)C(=O)N[C@@H](CCCCN)C(=O)Nc1ccc([N+](=O)[O-])cc1 [Bz-Val-Leu-Lys-pNA] (Bz-Val-Leu-Lys-pNA) | 100 |  | 500 (≈ 858 µM) |  |  |  | 
5 | CC(C)[C@H](NC(=O)c1ccccc1)C(=O)N1CCCC[C@H]1C(=O)N[C@@H](CCCNC(=N)N)C(=O)Nc1ccc([N+](=O)[O-])cc1 [Bz-Val-Pip-Arg-pNA] (Bz-Val-[Pip]-Arg-pNA) |  |  |  | 45 | 30 | 4 | 
6 | CC(C)[C@H](NC(=O)c1ccccc1)C(=O)N1CCC[C@H]1C(=O)N[C@@H](CCCNC(=N)N)C(=O)Nc1ccc([N+](=O)[O-])cc1 [Bz-Val-Pro-Arg-pNA] (Bz-Val-Pro-Arg-pNA) |  |  | 300 (≈ 504 µM) | 60 | 15 | 6 | 
7 | CC[C@H](C)[C@H](N)C(=O)N[C@@H](CC(C)C)C(=O)N[C@@H](CCCNC(=N)N)C(=O)Nc1ccc([N+](=O)[O-])cc1 [H-Ile-Leu-Arg-pNA] (H-Ile-Leu-Arg-pNA) | 10 | 20 |  |  |  |  | 
8 | CC[C@H](C)[C@H](N)C(=O)N[C@@H](CC(C)C)C(=O)N[C@@H](CCCCN)C(=O)Nc1ccc([N+](=O)[O-])cc1 [H-Ile-Leu-Lys-pNA] (H-Ile-Leu-Lys-pNA) | 35 |  |  |  |  |  | 
9 | CC(C)C[C@H](NC(=O)[C@@H](N)C(C)C)C(=O)N[C@@H](CCCNC(=N)N)C(=O)Nc1ccc([N+](=O)[O-])cc1 [H-Val-Leu-Arg-pNA] (H-Val-Leu-Arg-pNA) |  | 50 |  |  |  |  | 
10 | CC(C)C[C@H](NC(=O)[C@@H](N)C(C)C)C(=O)N[C@@H](CCCCN)C(=O)Nc1ccc([N+](=O)[O-])cc1 [H-Val-Leu-Lys-pNA] (H-Val-Leu-Lys-pNA) | 25 |  |  |  |  |  | 
11 | CC(C)[C@H](N)C(=O)N1CCCC[C@H]1C(=O)N[C@@H](CCCNC(=N)N)C(=O)Nc1ccc([N+](=O)[O-])cc1 [H-Val-Pip-Arg-pNA] (H-Val-[Pip]-Arg-pNA) |  |  |  | 35 | 45 | 4 | 
12 | CC(C)[C@H](N)C(=O)N1CCC[C@H]1C(=O)N[C@@H](CCCNC(=N)N)C(=O)Nc1ccc([N+](=O)[O-])cc1 [H-Val-Pro-Arg-pNA] (H-Val-Pro-Arg-pNA) |  |  | 40000 (≈ 81500 µM) | 55 | 15 | 6 | 
13 | CC(C)[C@@H](N)C(=O)N1CCC[C@H]1C(=O)N[C@@H](CCCNC(=N)N)C(=O)Nc1ccc([N+](=O)[O-])cc1 [XIII, H-D-Val-Pro-Arg-pNA . 2 HCl] (H-[dV]-Pro-Arg-pNA) |  |  | 100000 | 100 | 95 | 80 | Sensitivity (stated amount of enzyme gives the activity 0.1 nkat) ([4]; Trypsin, 0.1 nkat, ΔOD/min = 0.0254): 0.03 µg (Novo)
14 | CC(C)[C@@H](N)C(=O)N1CCCC[C@H]1C(=O)N[C@@H](CCCNC(=N)N)C(=O)Nc1ccc([N+](=O)[O-])cc1 [XIV, H-D-Val-Pip-Arg-pNA . 2 HCl] (H-[dV]-[Pip]-Arg-pNA) |  |  |  | 70 | 100 | 100 | Sensitivity (stated amount of enzyme gives the activity 0.1 nkat) ([5]; Urokinase, 0.1 nkat, ΔOD/min = 0.0254): 40 Ploug E; Sensitivity (stated amount of enzyme gives the activity 0.1 nkat) ([6]; Thrombin, 0.1 nkat, ΔOD/min = 0.0254): 0.06 INH
15 | CC[C@@H](C)[C@@H](N)C(=O)N[C@@H](CC(C)C)C(=O)N[C@@H](CCCNC(=N)N)C(=O)Nc1ccc([N+](=O)[O-])cc1 [XV, H-D-Ile-Leu-Arg-pNA . 2 HCl] (H-[dI]-Leu-Arg-pNA) | 75 | 100 | 4000 |  |  |  | 
16 | CC(C)C[C@H](NC(=O)[C@H](N)C(C)C)C(=O)N[C@@H](CCCNC(=N)N)C(=O)Nc1ccc([N+](=O)[O-])cc1 [XVI, H-D-Val-Leu-ARg-pNA . 2 HCl] (H-[dV]-Leu-Arg-pNA) |  | 100 | 600000 |  |  |  | Sensitivity (stated amount of enzyme gives the activity 0.1 nkat) ([2]; Kallikrein, 0.1 nkat, ΔOD/min = 0.0254): 0.2 Be
17 | CC[C@@H](C)[C@@H](N)C(=O)N[C@@H](CC(C)C)C(=O)N[C@@H](CCCCN)C(=O)Nc1ccc([N+](=O)[O-])cc1 [XVII, H-D-Ile-Leu-Lys-pNA . 2 HCl] (H-[dI]-Leu-Lys-pNA) | 100 |  | 20000 |  |  |  | 
18 | CC(C)C[C@H](NC(=O)[C@H](N)C(C)C)C(=O)N[C@@H](CCCCN)C(=O)Nc1ccc([N+](=O)[O-])cc1 [XVIII, H-D-Val-Leu-Lys-pNA . 2 HCl] (H-[dV]-Leu-Lys-pNA) | 100 |  | > 100000 |  |  |  | Sensitivity (stated amount of enzyme gives the activity 0.1 nkat) ([1]; Plasmin, 0.1 nkat, ΔOD/min = 0.0254): 0.01 CU
